Molecular target: T1, Rac2 (Mus musculus, UniProt Q05144)
T1 construct: reduced the expression of immune cell-specific Rac2 in the FBR capsules by about 80%; from tissue; host or cells: FBR capsule tissue around mechanically stimulating implants in C57/BL6 wild-type mice (Jackson labs Stock No: 000664)
Assay: Rac inhibition in the mechanically stimulating implant (MSI) mouse model of foreign body response
Type: in vivo
Conditions: C57/BL6 wildtype mice
From the text: Implantation Experiments. Standard silicone implants and MS's were implanted in C57/BL6 mice for either 2 weeks or 1 month. A 2 cm incision was made on the dorsum of the mouse and a subcutaneous pocket was created. Control implants were placed in the subcutaneous pocket and the incision was closed using 6-0 nylon suture or staples. For vibration-enabled implants, the implants were placed into a subcutaneous pocket, similar to the procedure described above and wires were guided through the skin using a modified seldinger technique. 3V batteries with an amplitude of 1.38 G and a frequency of 203 Hz were used to mimic human conditions. MS's were vibrated for 1 hour daily from day 4 (D4) post implantation to day 11 (D11). This time period was chosen based on previous studies, showing that increased mechanical stress during this period effectively induces fibrosis.
Histology and Trichrome staining. At each timepoint, the mice were euthanized, and the implants were resected en bloc with the surrounding scar tissue. The implants were removed and the scar tissue along with the skin was fixed in 4% paraformaldehyde overnight and embedded in paraffin. Scar tissue and implants from humans were collected from patients and processed within an hour. For analysis of the capsule, paraffin sections were stained with trichrome (SigmaAldrich) as described previously. Imaging was performed on a Leica DM5000 B upright microscope. Image analysis software (Image J) was used to quantify collagen staining.
Immunostaining. Immunohistological staining was performed on paraffin sections as described previously. Briefly, heat-based antigen retrieval was followed by blocking with 5% goat serum in PBS. The following primary antibodies were used at a 1:200 dilution (as recommended by the manufacturer) and incubated overnight at 4° C.: anti-a-SMA (Abcam ab5694) or anti-Rac2 (Fischer Scientific, DF6273). Incubation of primary antibody-stained specimens with Alexa Fluor 488 secondary antibody (Thermo Fisher Scientific) was performed at a 1:400 dilution for 1 hour at room temperature. Sections were subsequently mounted using Fluoroshield (F6057, Sigma, Saint Louis, MO) with 4′, 6-diamidino-2-phenylindole (DAPI) to stain cell nuclei. Imaging was performed on a Leica DM5000 B upright microscope. Image analysis was performed using Matlab.
Rac Inhibition Experiments. EHT 1864 2HCl, a potent Rac family GTPase inhibitor, was acquired from Selleckchem (Houston, TX). MS's were implanted in C57/BL6 wildtype mice for 28 days utilizing the modified Seldinger technique described above. Mice were injected with EHT 1864 2HCl (10 mg/kg/day) (n=4) or saline (n=4) from Days 0-26. FBR capsule tissue was explanted on day 28 and processed for histologic analysis.
Statistical Analyses. Results are presented as mean±SEM. Standard data analysis was performed using student's ttests. ANOVA with posthoc tukey's test was used for multiple comparisons. Results were considered significant for *p<0.05.

[1] = 10 mg/kg/day Days 0-26 vs saline, day 28
[2] = local injection 10 mg/kg/day Days 0-26 vs saline, capsule explanted day 28

capsule thickness (H&E staining) [1]: decreased | collagen deposition (trichrome staining) [1]: decreased | overall FBR [1]: significantly reduced | reduction in the activation of myofibroblasts in MSI capsules (aSMA immunostaining) [2]: about 90% | reduction of expression of immune cell-specific Rac2 in the FBR capsules (immunostaining, percent area positive) [2]: about 80%
Structure (SMILES): Cl.Cl.O=c1cc(CN2CCOCC2)occ1OCCCCCSc1ccnc2cc(C(F)(F)F)ccc12 [EHT 1864 2HCl]

From patent US20230381378A1, “METHODS AND COMPOSITIONS FOR THE TREATMENT OF IMPLANT ASSOCIATED COMPLICATIONS” (The Board of Trustees of the Leland Stanford Junior …, priority 2020, published 2023)
